{"source": "ChEMBL document CHEMBL4507263", "about": "“Data for DCP probe BAY-474” (2021)", "key": {"Rattus norvegicus": {"species": "Rattus norvegicus", "assay": "Inhibition of Imidazoline I2, Central at 10 µM in the Eurofins-Panlabs radioligand binding assay (Eurofins_assay_241000)", "set-up": "ligand concentration 2 nM", "details": "Compound concentration 10.0 uM; call rule not given here"}, "[1]": {"target": "Mitogen-activated protein kinase kinase kinase 9 (Homo sapiens) (UniProt P80192)", "assay": "MLK1 (h) Millipore kinase activity assay", "details": "Compound concentration 1.0 uM"}, "[2]": {"target": "Mitogen-activated protein kinase 1 (Homo sapiens) (UniProt P28482)", "assay": "MAPK2( h) Millipore kinase activity assay", "details": "Compound concentration 1.0 uM"}, "[3]": {"target": "Testis-specific serine/threonine-protein kinase 2 (Homo sapiens) (UniProt Q96PF2)", "assay": "TSSK2 (h) Millipore kinase activity assay", "details": "Compound concentration 1.0 uM"}, "[4]": {"target": "Serine/threonine-protein kinase pim-1 (Homo sapiens) (UniProt P11309)", "sequence (P11309 whole entry, looked up)": "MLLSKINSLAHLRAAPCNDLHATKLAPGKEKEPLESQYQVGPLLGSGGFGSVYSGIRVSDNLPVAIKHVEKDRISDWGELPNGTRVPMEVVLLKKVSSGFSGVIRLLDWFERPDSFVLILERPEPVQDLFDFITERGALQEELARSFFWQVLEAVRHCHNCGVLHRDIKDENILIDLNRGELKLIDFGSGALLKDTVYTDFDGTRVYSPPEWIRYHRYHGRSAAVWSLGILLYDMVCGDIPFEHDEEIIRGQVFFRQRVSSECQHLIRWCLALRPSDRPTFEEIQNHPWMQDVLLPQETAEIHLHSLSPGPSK", "assay": "Pim-1 (h) Millipore kinase activity assay", "details": "Compound concentration 1.0 uM"}, "[5]": {"target": "5-hydroxytryptamine receptor 2B (Homo sapiens) (UniProt P41595)", "details": "Compound concentration 10.0 uM"}, "[6]": {"target": "Phosphorylase b kinase gamma catalytic chain, liver/testis isoform (Homo sapiens) (UniProt P15735)", "sequence (P15735 whole entry, looked up, canonical isoform)": "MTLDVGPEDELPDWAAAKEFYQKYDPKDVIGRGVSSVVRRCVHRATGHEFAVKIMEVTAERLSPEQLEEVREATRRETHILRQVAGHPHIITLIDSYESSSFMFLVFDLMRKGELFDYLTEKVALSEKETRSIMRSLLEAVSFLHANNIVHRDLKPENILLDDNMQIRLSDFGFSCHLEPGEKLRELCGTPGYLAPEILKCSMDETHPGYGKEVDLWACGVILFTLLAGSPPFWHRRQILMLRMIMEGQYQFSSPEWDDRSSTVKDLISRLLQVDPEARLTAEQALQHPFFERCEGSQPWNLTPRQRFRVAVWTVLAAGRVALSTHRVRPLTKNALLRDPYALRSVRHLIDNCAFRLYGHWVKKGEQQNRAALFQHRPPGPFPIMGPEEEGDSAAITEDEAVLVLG", "assay": "PhKgamma2 (h) Millipore kinase activity assay", "details": "Compound concentration 1.0 uM"}, "[7]": {"target": "Casein kinase II subunit alpha (Homo sapiens) (UniProt P68400)", "sequence (P68400 whole entry, looked up)": "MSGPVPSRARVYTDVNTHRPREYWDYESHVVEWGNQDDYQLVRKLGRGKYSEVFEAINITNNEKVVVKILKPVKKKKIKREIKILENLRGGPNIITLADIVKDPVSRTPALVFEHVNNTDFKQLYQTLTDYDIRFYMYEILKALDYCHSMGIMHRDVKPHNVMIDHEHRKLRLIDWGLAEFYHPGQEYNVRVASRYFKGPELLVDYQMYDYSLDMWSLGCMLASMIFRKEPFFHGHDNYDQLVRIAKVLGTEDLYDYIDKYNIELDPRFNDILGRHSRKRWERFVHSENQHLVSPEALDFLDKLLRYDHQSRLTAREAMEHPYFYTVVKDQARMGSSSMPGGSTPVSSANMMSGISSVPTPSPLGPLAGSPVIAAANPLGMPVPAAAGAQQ", "assay": "CK2 (h) Millipore kinase activity assay", "details": "Compound concentration 1.0 uM"}, "[8]": {"target": "L-type calcium channel, benzothiazepine site (Cav1.2 alpha-1C) (Homo sapiens, UniProt Q13936)", "assay": "Inhibition of Calcium Channel L-Type, Benzothiazepine at 10 µM in the Eurofins-Panlabs radioligand binding assay (Eurofins_assay_214510)", "set-up": "ligand concentration 2 nM, non-specific ligand with concentration 10 µM Diltiazem, incubation time 3h, incubation temperature 4 °C", "details": "male, Wistar, rat, rat whole brain preparation, probe [3H] Diltiazem; compound concentration 10 uM; target entry is the homologue from another species"}, "[9]": {"target": "MAP kinase-activated protein kinase 5 (Homo sapiens) (UniProt Q8IW41)", "assay": "PRAK (h) Millipore kinase activity assay", "details": "Compound concentration 1.0 uM"}, "[10]": {"target": "Prostaglandin E2 receptor EP4 subtype (Homo sapiens) (UniProt P35408)", "assay": "Inhibition of Prostanoid EP4 at 10 µM in the Eurofins-Panlabs radioligand binding assay (Eurofins_assay_268420)", "set-up": "ligand concentration 1 nM", "details": "Compound concentration 10.0 uM"}, "[11]": {"target": "Myotonin-protein kinase (Homo sapiens) (UniProt Q09013)", "assay": "DMPK (h) Millipore kinase activity assay", "details": "Compound concentration 1.0 uM"}, "[12]": {"target": "Mitogen-activated protein kinase kinase kinase 5 (Homo sapiens) (UniProt Q99683)", "assay": "ASK1 (h) Millipore kinase activity assay", "details": "Compound concentration 1.0 uM"}, "[13]": {"target": "Mitogen-activated protein kinase 14 (Homo sapiens) (UniProt Q16539)", "assay": "SAPK2a (h) Millipore kinase activity assay", "details": "Compound concentration 1.0 uM"}, "[14]": {"target": "Tyrosine-protein kinase ITK/TSK (Homo sapiens) (UniProt Q08881)", "details": "Compound concentration 1000.0 nM"}, "[15]": {"target": "Phosphatidylinositol 4-phosphate 5-kinase type-1 gamma (Homo sapiens) (UniProt O60331)", "details": "Compound concentration 1000.0 nM"}, "[16]": {"target": "Serine/threonine-protein kinase PRP4 homolog (Homo sapiens) (UniProt Q13523)", "details": "Compound concentration 1000.0 nM"}, "[17]": {"target": "Ankyrin repeat and protein kinase domain-containing protein 1 (Homo sapiens) (UniProt Q8NFD2)", "details": "Compound concentration 1000.0 nM"}, "[18]": {"test_system": "ALK tyrosine kinase receptor (Homo sapiens), Q9UM73 [C1156Y]", "details": "Compound concentration 1000.0 nM"}, "[19]": {"target": "Dual specificity mitogen-activated protein kinase kinase 2 (Homo sapiens) (UniProt P36507)", "details": "Compound concentration 1000.0 nM"}, "[20]": {"target": "Serine/threonine-protein kinase ULK2 (Homo sapiens) (UniProt Q8IYT8)", "sequence (Q8IYT8 whole entry)": "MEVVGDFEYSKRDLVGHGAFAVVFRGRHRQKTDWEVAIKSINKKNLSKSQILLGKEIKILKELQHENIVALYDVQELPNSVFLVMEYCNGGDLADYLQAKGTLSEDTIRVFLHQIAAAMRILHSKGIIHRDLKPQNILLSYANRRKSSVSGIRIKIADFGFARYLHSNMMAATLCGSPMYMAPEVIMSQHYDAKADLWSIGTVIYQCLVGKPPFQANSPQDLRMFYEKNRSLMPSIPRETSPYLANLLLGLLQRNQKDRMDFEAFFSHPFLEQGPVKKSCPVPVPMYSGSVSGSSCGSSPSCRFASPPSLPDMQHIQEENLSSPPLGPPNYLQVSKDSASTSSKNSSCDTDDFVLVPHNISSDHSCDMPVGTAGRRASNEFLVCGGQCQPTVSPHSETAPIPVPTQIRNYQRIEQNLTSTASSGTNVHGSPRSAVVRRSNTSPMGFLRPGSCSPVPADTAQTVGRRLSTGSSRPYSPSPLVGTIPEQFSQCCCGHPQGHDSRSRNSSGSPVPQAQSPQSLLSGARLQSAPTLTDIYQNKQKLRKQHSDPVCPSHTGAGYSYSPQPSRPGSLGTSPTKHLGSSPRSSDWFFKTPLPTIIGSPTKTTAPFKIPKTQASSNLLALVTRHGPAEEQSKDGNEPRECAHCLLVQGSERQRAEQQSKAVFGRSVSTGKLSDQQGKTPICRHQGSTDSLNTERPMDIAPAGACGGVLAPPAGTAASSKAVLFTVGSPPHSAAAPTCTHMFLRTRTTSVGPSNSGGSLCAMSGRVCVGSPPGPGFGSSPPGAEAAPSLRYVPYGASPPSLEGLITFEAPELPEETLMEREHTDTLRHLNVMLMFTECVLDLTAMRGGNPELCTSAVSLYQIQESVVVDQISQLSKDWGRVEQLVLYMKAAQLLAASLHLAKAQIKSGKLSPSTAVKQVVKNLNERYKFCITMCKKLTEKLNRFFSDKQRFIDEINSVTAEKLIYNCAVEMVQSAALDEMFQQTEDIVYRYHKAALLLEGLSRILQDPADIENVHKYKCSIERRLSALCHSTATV", "details": "Compound concentration 1000.0 nM"}, "[21]": {"target": "T1, cGMP-dependent protein kinase 1 (Homo sapiens) (UniProt Q13976)", "T1 sequence (whole entry)": "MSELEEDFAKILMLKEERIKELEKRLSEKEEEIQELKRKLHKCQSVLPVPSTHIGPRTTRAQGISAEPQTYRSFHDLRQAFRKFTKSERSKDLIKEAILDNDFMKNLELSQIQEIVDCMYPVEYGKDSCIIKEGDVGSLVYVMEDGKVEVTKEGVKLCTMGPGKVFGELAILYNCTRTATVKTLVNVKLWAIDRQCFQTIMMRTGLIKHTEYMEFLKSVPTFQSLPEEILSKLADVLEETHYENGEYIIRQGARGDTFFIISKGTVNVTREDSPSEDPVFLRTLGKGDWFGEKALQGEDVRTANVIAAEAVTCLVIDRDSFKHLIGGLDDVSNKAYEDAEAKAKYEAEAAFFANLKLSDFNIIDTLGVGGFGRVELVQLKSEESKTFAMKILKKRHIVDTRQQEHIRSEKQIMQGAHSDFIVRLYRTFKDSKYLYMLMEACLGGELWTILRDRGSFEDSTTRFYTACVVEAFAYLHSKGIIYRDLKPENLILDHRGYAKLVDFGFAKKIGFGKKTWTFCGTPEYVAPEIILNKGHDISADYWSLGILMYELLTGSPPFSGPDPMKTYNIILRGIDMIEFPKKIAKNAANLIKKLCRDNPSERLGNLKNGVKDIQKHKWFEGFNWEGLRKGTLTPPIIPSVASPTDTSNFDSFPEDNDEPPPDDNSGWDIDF", "details": "Compound concentration 1000.0 nM"}, "[22]": {"target": "Macrophage colony-stimulating factor 1 receptor (Homo sapiens) (UniProt P07333)", "details": "Compound concentration 1000.0 nM"}, "[23]": {"target": "Cyclin-dependent kinase-like 1 (Homo sapiens) (UniProt Q00532)", "sequence (Q00532 whole entry)": "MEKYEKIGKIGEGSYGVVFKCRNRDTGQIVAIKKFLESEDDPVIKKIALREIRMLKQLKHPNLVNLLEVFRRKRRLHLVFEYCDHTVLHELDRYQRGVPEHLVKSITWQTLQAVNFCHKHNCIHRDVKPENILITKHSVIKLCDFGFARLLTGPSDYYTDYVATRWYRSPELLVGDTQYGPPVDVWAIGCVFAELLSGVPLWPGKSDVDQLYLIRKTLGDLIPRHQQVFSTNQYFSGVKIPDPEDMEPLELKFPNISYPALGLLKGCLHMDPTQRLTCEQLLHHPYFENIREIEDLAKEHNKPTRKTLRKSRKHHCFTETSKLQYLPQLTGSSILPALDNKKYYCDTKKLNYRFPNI", "details": "Compound concentration 1000.0 nM"}, "[24]": {"target": "Beta-adrenergic receptor kinase 1 (Homo sapiens) (UniProt P25098)", "sequence (P25098 whole entry)": "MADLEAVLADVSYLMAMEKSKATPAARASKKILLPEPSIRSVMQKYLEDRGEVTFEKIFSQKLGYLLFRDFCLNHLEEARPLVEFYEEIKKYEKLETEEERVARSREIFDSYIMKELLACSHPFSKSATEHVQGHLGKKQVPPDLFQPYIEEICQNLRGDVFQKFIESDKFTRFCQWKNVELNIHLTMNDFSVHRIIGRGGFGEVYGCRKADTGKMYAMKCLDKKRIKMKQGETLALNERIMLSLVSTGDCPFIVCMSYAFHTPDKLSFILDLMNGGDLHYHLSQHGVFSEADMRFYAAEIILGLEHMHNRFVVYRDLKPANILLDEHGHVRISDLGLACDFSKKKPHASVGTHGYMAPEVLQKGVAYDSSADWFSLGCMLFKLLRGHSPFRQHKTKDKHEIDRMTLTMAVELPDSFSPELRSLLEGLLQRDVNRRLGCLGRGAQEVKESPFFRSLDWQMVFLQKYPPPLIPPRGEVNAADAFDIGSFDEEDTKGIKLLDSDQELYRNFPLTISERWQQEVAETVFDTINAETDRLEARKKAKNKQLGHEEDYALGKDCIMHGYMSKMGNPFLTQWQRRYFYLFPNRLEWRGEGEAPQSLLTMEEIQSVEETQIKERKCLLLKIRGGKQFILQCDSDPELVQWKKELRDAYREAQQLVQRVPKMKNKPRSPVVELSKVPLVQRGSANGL", "details": "Compound concentration 1000.0 nM"}, "[25]": {"target": "Serine/threonine-protein kinase pim-1 (Homo sapiens) (UniProt P11309)", "details": "Compound concentration 1000.0 nM"}, "[26]": {"target": "Ribosomal protein S6 kinase alpha-4 (Homo sapiens) (UniProt O75676)", "details": "Compound concentration 1000.0 nM"}, "[27]": {"target": "Homeodomain-interacting protein kinase 4 (Homo sapiens) (UniProt Q8NE63)", "details": "Compound concentration 1000.0 nM"}, "[28]": {"target": "Serine/threonine-protein kinase Sgk3 (Homo sapiens) (UniProt Q96BR1)", "sequence (Q96BR1 whole entry)": "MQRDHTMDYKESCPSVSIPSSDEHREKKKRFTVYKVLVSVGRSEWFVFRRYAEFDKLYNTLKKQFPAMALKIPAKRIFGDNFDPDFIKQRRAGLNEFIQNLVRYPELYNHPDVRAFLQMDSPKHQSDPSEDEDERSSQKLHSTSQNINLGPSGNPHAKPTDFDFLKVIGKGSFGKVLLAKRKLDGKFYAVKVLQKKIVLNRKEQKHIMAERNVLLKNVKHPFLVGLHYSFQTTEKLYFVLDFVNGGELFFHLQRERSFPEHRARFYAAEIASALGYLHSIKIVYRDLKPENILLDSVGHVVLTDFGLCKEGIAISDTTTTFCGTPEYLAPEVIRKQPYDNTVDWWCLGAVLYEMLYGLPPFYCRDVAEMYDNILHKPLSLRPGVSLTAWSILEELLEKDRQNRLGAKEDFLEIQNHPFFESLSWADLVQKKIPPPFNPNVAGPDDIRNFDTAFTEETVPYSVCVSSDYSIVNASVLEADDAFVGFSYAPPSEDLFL", "details": "Compound concentration 1000.0 nM"}, "[29]": {"target": "Serine/threonine-protein kinase N1 (Homo sapiens) (UniProt Q16512)", "details": "Compound concentration 1000.0 nM"}, "[30]": {"target": "Mitotic checkpoint serine/threonine-protein kinase BUB1 (Homo sapiens) (UniProt O43683)", "sequence (O43683 whole entry, looked up)": "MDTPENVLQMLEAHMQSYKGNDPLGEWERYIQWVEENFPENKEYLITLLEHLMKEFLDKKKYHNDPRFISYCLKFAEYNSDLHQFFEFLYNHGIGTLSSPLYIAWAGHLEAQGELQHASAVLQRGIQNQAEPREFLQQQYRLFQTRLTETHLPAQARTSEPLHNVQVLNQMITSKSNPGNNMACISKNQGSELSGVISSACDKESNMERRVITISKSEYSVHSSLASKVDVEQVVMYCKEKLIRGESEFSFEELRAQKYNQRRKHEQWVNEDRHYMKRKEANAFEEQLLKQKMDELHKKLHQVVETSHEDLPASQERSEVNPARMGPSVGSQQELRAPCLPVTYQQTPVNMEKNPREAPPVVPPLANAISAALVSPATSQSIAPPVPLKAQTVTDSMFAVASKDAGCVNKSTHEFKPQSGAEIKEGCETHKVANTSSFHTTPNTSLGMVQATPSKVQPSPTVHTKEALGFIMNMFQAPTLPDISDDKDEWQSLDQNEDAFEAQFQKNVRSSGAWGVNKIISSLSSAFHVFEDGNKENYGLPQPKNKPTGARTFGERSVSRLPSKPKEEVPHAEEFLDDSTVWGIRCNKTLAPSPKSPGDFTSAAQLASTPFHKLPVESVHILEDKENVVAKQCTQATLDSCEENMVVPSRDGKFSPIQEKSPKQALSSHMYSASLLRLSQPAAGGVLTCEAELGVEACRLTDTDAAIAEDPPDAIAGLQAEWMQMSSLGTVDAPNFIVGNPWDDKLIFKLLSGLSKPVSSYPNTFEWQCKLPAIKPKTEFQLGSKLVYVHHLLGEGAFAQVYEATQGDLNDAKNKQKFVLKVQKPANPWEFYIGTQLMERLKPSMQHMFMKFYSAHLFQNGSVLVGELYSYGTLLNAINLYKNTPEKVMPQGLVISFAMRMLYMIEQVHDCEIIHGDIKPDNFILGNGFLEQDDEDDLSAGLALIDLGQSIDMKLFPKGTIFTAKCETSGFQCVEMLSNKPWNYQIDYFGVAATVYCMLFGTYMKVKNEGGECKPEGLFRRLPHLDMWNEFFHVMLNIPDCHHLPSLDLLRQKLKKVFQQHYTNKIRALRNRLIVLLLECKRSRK", "details": "Compound concentration 1000.0 nM"}, "[31]": {"test_system": "Tyrosine-protein kinase ABL1 (Homo sapiens), P00519 [H396P]", "details": "Compound concentration 1000.0 nM"}, "[32]": {"target": "Vascular endothelial growth factor receptor 2 (Homo sapiens) (UniProt P35968)", "details": "Compound concentration 1000.0 nM"}, "[33]": {"target": "Tyrosine-protein kinase JAK1 (Homo sapiens) (UniProt P23458)", "details": "Compound concentration 1000.0 nM"}}, "data": [{"molecule": "CC1=C(C#N)C(c2ccc3[nH]nc(C)c3c2)C(C#N)=C(C)N1", "note": "[BAY-474]", "values": [{"measurement": "inhibition", "setting": "Rattus norvegicus", "value": 5, "unit": "%"}, {"measurement": "inhibition", "setting": "[1]", "value": -1, "unit": "%"}, {"measurement": "inhibition", "setting": "[2]", "value": 4, "unit": "%"}, {"measurement": "inhibition", "setting": "[3]", "value": -3, "unit": "%"}, {"measurement": "inhibition", "setting": "[4]", "value": -3, "unit": "%"}, {"measurement": "inhibition", "setting": "[5]", "value": 4, "unit": "%"}, {"measurement": "inhibition", "setting": "[6]", "value": -10, "unit": "%"}, {"measurement": "inhibition", "setting": "[7]", "value": -8, "unit": "%"}, {"measurement": "inhibition at 3 h, 10 µM", "setting": "[8]", "value": "-9% (not active)"}, {"measurement": "inhibition", "setting": "[9]", "value": 6, "unit": "%"}, {"measurement": "inhibition", "setting": "[10]", "value": 19, "unit": "%"}, {"measurement": "inhibition", "setting": "[11]", "value": 3, "unit": "%"}, {"measurement": "inhibition", "setting": "[12]", "value": -6, "unit": "%"}, {"measurement": "inhibition", "setting": "[13]", "value": 3, "unit": "%"}]}, {"molecule": "CC1=C(C#N)[C@@H](c2ccc3[nH]nc(C)c3c2)C(C#N)=C(c2ccc(Cl)cc2)N1", "note": "[BAY-827]", "values": [{"measurement": "residual activity", "setting": "[14]", "value": 97.2, "unit": "%"}, {"measurement": "residual activity", "setting": "[15]", "value": 99.5, "unit": "%"}, {"measurement": "residual activity", "setting": "[16]", "value": 100, "unit": "%"}, {"measurement": "residual activity", "setting": "[17]", "value": 100, "unit": "%"}, {"measurement": "residual activity", "setting": "[18]", "value": 100, "unit": "%"}, {"measurement": "residual activity", "setting": "[19]", "value": 100, "unit": "%"}, {"measurement": "residual activity", "setting": "[20]", "value": 100, "unit": "%"}, {"measurement": "residual activity", "setting": "[21]", "value": 86.9, "unit": "%"}, {"measurement": "residual activity", "setting": "[22]", "value": 100, "unit": "%"}, {"measurement": "residual activity", "setting": "[23]", "value": 77.1, "unit": "%"}, {"measurement": "residual activity", "setting": "[24]", "value": 88.1, "unit": "%"}, {"measurement": "residual activity", "setting": "[25]", "value": 100, "unit": "%"}, {"measurement": "residual activity", "setting": "[26]", "value": 100, "unit": "%"}, {"measurement": "residual activity", "setting": "[27]", "value": 88.1, "unit": "%"}, {"measurement": "residual activity", "setting": "[28]", "value": 84.5, "unit": "%"}, {"measurement": "residual activity", "setting": "[29]", "value": 91.4, "unit": "%"}, {"measurement": "residual activity", "setting": "[30]", "value": 100, "unit": "%"}, {"measurement": "residual activity", "setting": "[31]", "value": 79.9, "unit": "%"}, {"measurement": "residual activity", "setting": "[32]", "value": 96.3, "unit": "%"}, {"measurement": "residual activity", "setting": "[33]", "value": 38.2, "unit": "%"}]}]}
